The subject of assay [1] is PPS cells obtained by differentiation induction from human iPS cells. Briefly: Induction of FOXD1-positive renal interstitial progenitor cells (IPC) from PPS cells, flow cytometric analysis (FOXD1 and OSR1) on Day 11. In kind it is cell-based. As to conditions: 5 days of treatment (Days 6 to 11) with the combination CHIR99021 1 μM, SB431542 10 μM and RA 100 nM; FIG. 3. As to the method:
FIG. 3 is a diagram illustrating results of flow cytometric analysis (FOXD1 and OSR1), carried out on Day 11, of cells that were treated with various combinations of factors during the differentiation induction period of Days 6 to 11 (the period corresponding to “Screening” in FIG. 1). The following concentrations were employed: 1 μM CHIR99021 (CHIR), 10 μM SB431542 (SB), 100 nM retinoic acid (RA), 200 ng/mL FGF9, and 25 ng/mL Noggin.
FIG. 5 is a diagram illustrating results of flow cytometric analysis (FOXD1 and OSR1), carried out on Day 11, of cells that were treated or not treated with Smoothened Agonist (SAG) (concentration, 500 nM) during the differentiation induction period of Days 6 to 8. ** indicates p<0.01 (Student's t-test), and NS indicates “no significant difference”.
FIG. 6 is a diagram illustrating results of flow cytometric analysis (FOXD1 and OSR1), carried out on Day 11, of cells that were treated with various factors during the differentiation induction period of Days 6 to 8. The following concentrations were employed: 1 μM CHIR, 10% Wnt3a, 200 ng/mLRSPO1 (R-Spondin-1), 500 nM SAG, 10 ng/mL IL-1β, 50 ng/mL Estradiol, and 10 ng/mL TGFβ1.
Human iPS cells (hiPSCs) (17K6:OSR1-GFP/FOXD1-tdTomato double knock-in hiPSCs) were first subjected to enzyme treatment for 5 minutes using a 1:1 mixture of TrypLE Select Enzyme (Thermo Fisher Scientific) and 0.5 mM EDTA/PBS, and then washed with PBS(−). Thereafter, the cells were detached using a cell scraper, and then dissociated into single cells by gentle pipetting. One day before the start of differentiation, the cells were plated into a 24-well plate (CORNING) at a density of 1.3×10^4 cells/cm^2 together with 0.5 mL of Stem Fit AK02N (Ajinomoto Healthy Supply Co., Inc.) supplemented with 10 μM Y-27632 and 2.4 μL/mL iMatrix-511 (Matrixome). Twenty-four hours later (Day 0), 5 μM CHIR99021 (Wako), 10 nM RA (Sigma), 1 ng/mL BMP4 (Peprotech), and 100 ng/mL bFGF (Wako) were added to a serum-free differentiation medium comprising DMEM/F12 Glutamax (Thermo Fisher Scientific), B27 supplement minus vitamin A (Thermo Fisher Scientific), and 0.5× penicillin/streptomycin (hereinafter referred to as basal medium), and then culture was started. Twenty-four hours thereafter (Day 1), culture was performed with a basal medium supplemented with 5 μM CHIR99021, 100 ng/mL bFGF, and 1 ng/mL BMP7 (R&D Systems). On Day 2, the medium was switched to a basal medium supplemented with 5 μM CHIR99021, 1 ng/mL BMP7, and 10 μM A83-01 (Wako). On Day 3, the medium was switched to a basal medium supplemented with 5 μM CHIR99021, 30 ng/mL bFGF, 10 ng/mL activin A (R&D Systems), and 30 μM Y-27632 (Wako). On Day 4, the cells were washed with PBS(−), treated with Accumax (Innovative Cell Technologies), and then dissociated into single cells by gentle pipetting, followed by plating into a 24-well plate (CORNING) at a density of 1.05×10^5 cells/cm^2 (2D culture) or plating into a 96-well low-cell-adhesive plate (Thermo Fisher Scientific) at a density of 2.0×10^4 cells/cm^2 (3D culture). Culture was performed for 48 hours using a basal medium supplemented with 5 μM CHIR99021, 30 ng/mL bFGF, 10 ng/mL activin A, and 30 μM Y-27632 (in addition, 1.2 μL/well iMatrix-511 or a laminin-E8 fragment library in the case of 2D culture). By this, HOXC10- and CITED1-positive PPS cells were induced.
For the PPS cells on Day 6 of the culture protocol in FIG. 1, several differentiation induction conditions were tested by combining various factors. […]
In general terms: A flow cytometer gives signals particle by particle.

The test system of another assay is hiPSC-derived IPCs. Briefly: qRT-PCR of EPO after further differentiation induction from IPCs (renal EPO-producing cells). As to conditions: combination of SB431542 and SAG (500 nM); 5% O2, FG-4592 and RA present; FIG. 9. The assay is classed as cell-based, human. As to the method:
FIG. 9 is a diagram illustrating results of qRT-PCR analysis of EPO and renin carried out on Days 11 to 14, that is, after obtaining renal interstitial progenitor cells, for comparison of the effects of combinations of candidate differentiation induction factors for renal EPO-producing cells or renin-producing cells. The SAG concentration was 500 nM, and the concentrations of SB and CHIR are expressed in the unit of μM.
FIG. 10 is a diagram illustrating results of qRT-PCR analysis of EPO and renin on Days 11 to 14, that is, after obtaining renal interstitial progenitor cells, for comparison of the effects of combinations of various candidate differentiation induction factors. The SAG concentration was 500 nM; the concentrations of SB and A83 are expressed in the unit of μM; LDN is expressed in the unit of nM; and TGFβ1, BMP7, and activin (ACT) are expressed in the unit of ng/mL.
FIG. 15 is a diagram illustrating results of qRT-PCR analysis of EPO carried out on Days 11 to 14, that is, after obtaining renal interstitial progenitor cells, for comparison of the effects of various Sonic Hedgehog (SHH) signal modulators under induction conditions using CHIR99021, RA, and A83-01. So, Vi, Pu, Sa, and Ga represent sonidegib, vismodegib, purmophamine, SANT-1, and GANT61, respectively, and their concentrations are expressed in the unit of μM. The concentration of SAG was 500 nM, and the concentration of SHH was 100 ng/mL.
First, using the IPCs on Day 11, culture was performed under 5% O2 hypoxic conditions in the presence of FG-4592 (N-[(4-hydroxy-1-methyl-7-phenoxy-3-isoquinolinyl)carbonyl]-glycine) and RA with addition of various factors. By measuring the expression of EPO and renin, screening for induction factors for renin-producing cells and renal EPO-producing cells was carried out.
Subsequently, the effects of various SHH signal modulators in a system for differentiation induction from IPCs to EPO-producing cells were investigated (FIG. 15). Several SMO antagonists (sonidegib, vismodegib, and SANT-1) and agonists (SAG and purmophamine), a GLI1 inhibitor (GANT61), and human SHH protein were tested.

Take `NC(=O)c1ccc(-c2nc(-c3ccc4c(c3)OCO4)c(-c3ccccn3)[nH]2)cc1` [SB431542]: the “induction of FOXD1-positive cells” value in assay [1] is “could be induced”. The “expression of EPO” value with hiPSC-derived IPCs is given as “increase the expression of EPO”.

Source of the values: patent US20240318142A1, “METHOD FOR PRODUCING RENAL INTERSTITIAL PROGENITOR CELLS, ERYTHROPOIETIN-PRODUCING CELLS, AND METHOD FOR PRODUCING RENIN-PRODUCING CELLS” (KYOTO UNIVERSITY, priority 2021, published 2024).
